The values that follow come from PubChem BioAssay (NCI).

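Cultured in 96-well plates, cells were exposed to test compound for 48 hours across five concentrations. The concentration for 50% growth inhibition is given as GI50. TGI is the concentration that stops growth completely.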

Test systems include 786-0 renal; A549 NSCLC; DU-145 prostate; HL-60(TB) leukemia; HOP-62 NSCLC; KM12 colon; MDA-MB-231 breast; NCI-H460 lung; SF-295 CNS; NCI-H226 lung.
Common to all, as to assay: NCI anticancer screen, dose series, 48 h

As for `Cn1c(-c2c(N)n(Nc3cccc(Cl)c3)c3nc(C#N)c(C#N)nc23)nc2ccccc21`, the GI50 in the experiment with 786-0 renal was 8.91 µM; with A549 NSCLC, 10.9 µM; with DU-145 prostate it was 6.46 µM; in the experiment on HL-60(TB) leukemia it was 8.19 µM; in the experiment with HOP-62 NSCLC, 15.6 µM; with KM12 colon, 9.57 µM. The GI50 is 6.47 µM in the experiment with MDA-MB-231 breast, 13.3 µM in the experiment with NCI-H460 lung and 11 µM with SF-295 CNS. Besides, the TGI in the experiment with 786-0 renal was 37.3 µM; with A549 NSCLC, 35.4 µM; with DU-145 prostate, 15.4 µM; in the experiment with HL-60(TB) leukemia, above 50 µM; in the experiment on HOP-62 NSCLC it was 43.4 µM; in the experiment on KM12 colon, 26.1 µM. Moreover, the TGI was 17.7 µM with MDA-MB-231 breast, above 50 µM with NCI-H460 lung and 27.8 µM with SF-295 CNS.
For the molecule `Cc1nc(N)nc2c1CCC(O)S2` (stereo not drawn), the GI50 in the experiment with 786-0 renal was 10.7 µM; with A549 NSCLC, 19.3 µM; in the experiment with DU-145 prostate, 3.5 µM; in the experiment on HL-60(TB) leukemia, 11.4 µM; in the experiment with HOP-62 NSCLC, 5.44 µM; in the experiment on KM12 colon, 5.46 µM. The values for the GI50 in the experiment with MDA-MB-231 breast, with NCI-H460 lung and in the experiment with SF-295 CNS were 10.2 µM, 3.86 µM and 14.8 µM, respectively. In addition, the TGI was 24.5 µM with 786-0 renal; 78.2 µM in the experiment with A549 NSCLC; 12.2 µM in the experiment on DU-145 prostate; 33 µM in the experiment on HL-60(TB) leukemia; 18.5 µM in the experiment with HOP-62 NSCLC; 19.6 µM with KM12 colon. In addition, the values for the TGI with MDA-MB-231 breast, with NCI-H460 lung and in the experiment with SF-295 CNS were 32.8 µM, 15.3 µM and 44.3 µM, respectively.
Consider `COC(=O)C1C(O)CCC2CN3CCc4c([nH]c5ccccc45)C3CC21` (stereo not drawn), for which the TGI in the experiment with 786-0 renal, in the experiment on A549 NSCLC, with DU-145 prostate, in the experiment with HOP-62 NSCLC, in the experiment with KM12 colon and with MDA-MB-231 breast was above 100 µM in each case. The TGI in the experiment on NCI-H226 lung, in the experiment with NCI-H460 lung and in the experiment with SF-295 CNS was above 100 µM each time. Moreover, in the experiment with HOP-62 NSCLC, the GI50 is above 100 µM.
With `COc1cc2c(c(OC)c1OC)-c1ncc3c(OC)c(OC)c(OC)cc3c1C2`, the GI50 in the experiment with 786-0 renal was 36.5 µM; with A549 NSCLC, 27.7 µM; with DU-145 prostate it was 29.6 µM; in the experiment with HOP-62 NSCLC, 28.5 µM; with KM12 colon, 16.1 µM; in the experiment on MDA-MB-231 breast, 26.2 µM. In addition, the values for the GI50 with NCI-H460 lung and with SF-295 CNS were 32.6 µM and 22 µM, respectively. In addition, the TGI is above 100 µM with 786-0 renal; above 100 µM in the experiment on A549 NSCLC; above 100 µM in the experiment on DU-145 prostate; 86 µM with HOP-62 NSCLC; 40.4 µM with KM12 colon; 86.8 µM in the experiment on MDA-MB-231 breast. Further, the values for the TGI with NCI-H460 lung and in the experiment on SF-295 CNS were above 100 µM and 47.1 µM, respectively.
On to `COc1ccc(-c2cs/c(=N\N=C\c3ccc(O)cc3O)n2/N=C/c2ccc(O)cc2O)cc1`, for which the GI50 in the experiment on 786-0 renal is 2.16 µM; with A549 NSCLC it was 1.89 µM; in the experiment on DU-145 prostate, 2.21 µM; in the experiment on HL-60(TB) leukemia, 1.76 µM; with KM12 colon, 1.98 µM; in the experiment with MDA-MB-231 breast it was 2.04 µM. Besides, the GI50 in the experiment on NCI-H226 lung is 2.08 µM; in the experiment with NCI-H460 lung it was 2.01 µM; in the experiment on SF-295 CNS, 1.71 µM. Besides, the TGI with 786-0 renal stood at 4.93 µM; in the experiment with A549 NSCLC, 4.62 µM; with DU-145 prostate, 5.84 µM; with HL-60(TB) leukemia, 6.09 µM; in the experiment with KM12 colon it was 4.6 µM; in the experiment on MDA-MB-231 breast, 5.51 µM. Also, the figures for the TGI in the experiment on NCI-H226 lung, in the experiment on NCI-H460 lung and in the experiment with SF-295 CNS were 4.78 µM, 4.43 µM and 3.33 µM, respectively.
As for `NS(=O)(=O)c1ccc(-n2nc3c(c2-c2ccc(Cl)cc2)Cc2ccccc2-3)cc1`, the GI50 in the experiment with 786-0 renal is 14.6 µM; in the experiment on A549 NSCLC it was 37.8 µM; with DU-145 prostate it was 15.1 µM; in the experiment on HOP-62 NSCLC, 30.4 µM; with KM12 colon, 19.9 µM; with MDA-MB-231 breast, 14.8 µM. The GI50 with NCI-H226 lung was 16.8 µM; in the experiment with NCI-H460 lung, 32.1 µM; with SF-295 CNS it was 29.8 µM. Also, the TGI in the experiment on 786-0 renal is 30.7 µM; in the experiment on A549 NSCLC it was above 100 µM; with DU-145 prostate it was 33 µM; in the experiment on HOP-62 NSCLC, 49.4 µM; with KM12 colon, 52.8 µM; with MDA-MB-231 breast, 30.1 µM. Moreover, the results for the TGI in the experiment with NCI-H226 lung, in the experiment on NCI-H460 lung and in the experiment on SF-295 CNS were 35.4 µM, above 100 µM and 82.3 µM, respectively.
On to `CCc1ccc(NC(=O)NC(=O)c2ccccc2[N+](=O)[O-])cc1Oc1ncc(Cl)cn1`, for which the TGI was 1.01 µM in the experiment on 786-0 renal; above 100 µM in the experiment on A549 NSCLC; above 100 µM in the experiment with DU-145 prostate; 0.0247 µM with HL-60(TB) leukemia; 75.3 µM in the experiment on HOP-62 NSCLC; 0.728 µM with KM12 colon. The figures for the TGI with MDA-MB-231 breast, in the experiment on NCI-H226 lung and in the experiment with NCI-H460 lung were 52.3 µM, 0.0796 µM and 0.0508 µM, respectively.
Take `COc1cc(C2SCCCCCCCCCCSC(c3ccc(O)c(OC)c3)SCCCCCCCCCCS2)ccc1O` (stereo not drawn): the TGI in the experiment with 786-0 renal, in the experiment with A549 NSCLC, in the experiment on DU-145 prostate, in the experiment with HOP-62 NSCLC, in the experiment on KM12 colon and in the experiment on MDA-MB-231 breast was above 100 µM throughout. Further, the TGI with NCI-H226 lung and with SF-295 CNS was above 100 µM throughout.
Turning to `Nc1ccccc1C#C/C=C\C#Cc1ccc(OCCCNC(=O)c2cc3ccccc3[nH]2)cc1`, the GI50 in the experiment with 786-0 renal is 12.6 µM; in the experiment with A549 NSCLC, 11.6 µM; with DU-145 prostate it was 35.4 µM; in the experiment with HOP-62 NSCLC, 15.7 µM; with KM12 colon, 5.98 µM; in the experiment with MDA-MB-231 breast, 1.93 µM. The GI50 with NCI-H226 lung was 14.4 µM; in the experiment with NCI-H460 lung, 9.83 µM; in the experiment on SF-295 CNS, 12.1 µM. Moreover, the TGI is 25.7 µM in the experiment on 786-0 renal; 31.3 µM in the experiment with A549 NSCLC; above 100 µM with DU-145 prostate; 35.7 µM in the experiment on HOP-62 NSCLC; above 100 µM in the experiment with KM12 colon; 14.6 µM in the experiment on MDA-MB-231 breast. Also, the TGI is 87.7 µM in the experiment on NCI-H226 lung, above 100 µM with NCI-H460 lung and 47.1 µM in the experiment on SF-295 CNS.
